# Laboratory results from ChEMBL document CHEMBL5465560, “Selectivity Literature for EUbOPEN Chemogenomic Library” (2024).
# What was measured:
# [1] = target: Serine/threonine-protein kinase SIK3 (Homo sapiens) (UniProt Q9Y2K2); experiment: Selectivity interaction (KinomeScan (DiscoverX)) EUB0000229b SIK3; settings: at 10 µM
# [2] = target: Serine/threonine-protein kinase PLK2 (Homo sapiens, UniProt Q9NYY3); experiment: Selectivity interaction (KinomeScan (DiscoverX)) EUB0000092b PLK2; settings: at 10 µM
# Serine/threonine-protein kinase PLK2, sequence (Q9NYY3 whole entry, looked up): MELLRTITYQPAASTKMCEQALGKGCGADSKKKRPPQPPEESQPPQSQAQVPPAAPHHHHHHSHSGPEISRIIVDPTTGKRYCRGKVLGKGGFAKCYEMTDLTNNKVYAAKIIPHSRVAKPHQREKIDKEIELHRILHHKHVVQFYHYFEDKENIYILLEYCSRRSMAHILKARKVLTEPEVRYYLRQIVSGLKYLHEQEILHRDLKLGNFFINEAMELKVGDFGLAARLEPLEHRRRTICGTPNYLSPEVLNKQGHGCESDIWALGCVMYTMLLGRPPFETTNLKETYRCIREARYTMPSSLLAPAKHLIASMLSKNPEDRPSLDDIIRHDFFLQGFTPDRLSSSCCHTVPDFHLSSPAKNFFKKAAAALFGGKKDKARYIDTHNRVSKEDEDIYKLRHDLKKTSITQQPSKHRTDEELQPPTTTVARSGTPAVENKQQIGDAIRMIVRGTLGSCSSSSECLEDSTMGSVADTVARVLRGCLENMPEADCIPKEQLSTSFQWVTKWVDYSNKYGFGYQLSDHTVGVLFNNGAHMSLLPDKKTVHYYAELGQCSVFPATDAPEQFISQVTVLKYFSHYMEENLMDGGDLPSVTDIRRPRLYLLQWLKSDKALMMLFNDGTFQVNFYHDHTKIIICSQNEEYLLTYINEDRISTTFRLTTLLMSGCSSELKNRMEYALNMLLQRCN
# [3] = target: Mitogen-activated protein kinase 8 (Homo sapiens, UniProt P45983); experiment: Selectivity interaction (ProQinase) EUB0000171b MAPK8
# Mitogen-activated protein kinase 8, sequence (P45983 whole entry): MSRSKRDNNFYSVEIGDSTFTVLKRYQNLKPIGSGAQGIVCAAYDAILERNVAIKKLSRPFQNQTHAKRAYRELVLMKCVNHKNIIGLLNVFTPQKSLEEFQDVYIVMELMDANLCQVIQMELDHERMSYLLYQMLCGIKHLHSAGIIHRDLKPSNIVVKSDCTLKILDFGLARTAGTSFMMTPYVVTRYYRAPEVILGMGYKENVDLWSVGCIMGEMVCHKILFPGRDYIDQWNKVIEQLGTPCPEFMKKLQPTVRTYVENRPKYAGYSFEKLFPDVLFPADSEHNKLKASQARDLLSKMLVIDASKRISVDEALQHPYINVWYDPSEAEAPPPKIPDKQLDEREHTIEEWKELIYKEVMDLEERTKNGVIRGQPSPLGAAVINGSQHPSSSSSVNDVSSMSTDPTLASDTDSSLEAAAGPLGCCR
# [4] = target: Serine/threonine-protein kinase SIK3 (Homo sapiens) (UniProt Q9Y2K2); experiment: Selectivity interaction (LanthaScreen Eu Kinase Binding Assay) EUB0001632a SIK3; settings: at 10 µM
# [5] = target: eIF-2-alpha kinase GCN2 (Homo sapiens) (UniProt Q9P2K8); experiment: Selectivity interaction (ActivX KiNativ screen (kinase selectivity in THP-1 cell lysates)) EUB0000639a EIF2AK4; assay type: subcellular; settings: lysate, at 0.04 µM
# eIF-2-alpha kinase GCN2 (Homo sapiens), sequence (Q9P2K8 whole entry): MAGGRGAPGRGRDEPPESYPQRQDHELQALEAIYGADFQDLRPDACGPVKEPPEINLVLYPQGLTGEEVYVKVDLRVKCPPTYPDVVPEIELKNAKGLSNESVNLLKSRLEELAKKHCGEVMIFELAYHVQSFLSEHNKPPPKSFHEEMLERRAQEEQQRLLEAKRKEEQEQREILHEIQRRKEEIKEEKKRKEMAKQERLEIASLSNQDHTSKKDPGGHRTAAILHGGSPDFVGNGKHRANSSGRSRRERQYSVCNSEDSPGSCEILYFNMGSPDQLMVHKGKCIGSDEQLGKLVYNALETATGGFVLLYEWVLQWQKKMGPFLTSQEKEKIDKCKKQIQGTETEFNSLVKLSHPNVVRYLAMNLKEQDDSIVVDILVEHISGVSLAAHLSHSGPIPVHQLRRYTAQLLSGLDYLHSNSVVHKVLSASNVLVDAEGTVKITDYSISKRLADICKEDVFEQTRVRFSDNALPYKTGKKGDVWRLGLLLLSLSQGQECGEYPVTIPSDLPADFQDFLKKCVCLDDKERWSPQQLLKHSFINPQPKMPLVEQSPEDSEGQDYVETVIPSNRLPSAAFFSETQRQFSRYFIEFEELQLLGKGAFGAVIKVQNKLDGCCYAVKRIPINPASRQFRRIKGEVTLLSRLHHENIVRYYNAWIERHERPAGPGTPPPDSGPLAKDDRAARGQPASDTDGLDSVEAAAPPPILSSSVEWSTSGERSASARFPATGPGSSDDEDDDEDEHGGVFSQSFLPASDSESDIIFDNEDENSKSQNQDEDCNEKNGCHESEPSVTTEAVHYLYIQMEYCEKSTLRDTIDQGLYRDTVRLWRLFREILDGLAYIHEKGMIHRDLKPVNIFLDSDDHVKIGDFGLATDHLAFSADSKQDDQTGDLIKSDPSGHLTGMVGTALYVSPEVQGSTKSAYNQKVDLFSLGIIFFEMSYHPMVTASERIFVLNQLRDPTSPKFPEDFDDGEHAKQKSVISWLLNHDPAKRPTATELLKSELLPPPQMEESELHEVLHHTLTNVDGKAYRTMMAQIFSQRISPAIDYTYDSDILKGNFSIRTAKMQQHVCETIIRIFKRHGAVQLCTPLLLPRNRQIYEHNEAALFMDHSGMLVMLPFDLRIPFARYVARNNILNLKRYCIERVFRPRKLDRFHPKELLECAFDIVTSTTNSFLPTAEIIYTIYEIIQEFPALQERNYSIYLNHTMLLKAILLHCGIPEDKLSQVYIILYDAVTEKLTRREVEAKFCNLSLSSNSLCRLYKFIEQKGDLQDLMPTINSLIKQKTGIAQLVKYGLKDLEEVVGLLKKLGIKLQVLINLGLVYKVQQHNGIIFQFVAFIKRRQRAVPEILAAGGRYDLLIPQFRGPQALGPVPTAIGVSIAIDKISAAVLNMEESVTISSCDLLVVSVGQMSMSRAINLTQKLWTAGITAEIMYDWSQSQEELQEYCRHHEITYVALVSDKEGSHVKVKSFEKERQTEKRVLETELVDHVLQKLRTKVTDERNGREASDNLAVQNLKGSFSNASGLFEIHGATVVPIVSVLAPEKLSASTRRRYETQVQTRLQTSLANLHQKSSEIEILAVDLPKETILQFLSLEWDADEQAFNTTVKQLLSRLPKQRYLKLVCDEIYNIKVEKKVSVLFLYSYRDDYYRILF
# [6] = target: T1, Serine/threonine-protein kinase TBK1 (Homo sapiens) (UniProt Q9UHD2); experiment: Selectivity interaction (ActivX KiNativ screen (kinase selectivity in THP-1 cell lysates)) EUB0000639a TBK1; assay type: subcellular; settings: lysate, at 1 µM
# T1 sequence (whole entry): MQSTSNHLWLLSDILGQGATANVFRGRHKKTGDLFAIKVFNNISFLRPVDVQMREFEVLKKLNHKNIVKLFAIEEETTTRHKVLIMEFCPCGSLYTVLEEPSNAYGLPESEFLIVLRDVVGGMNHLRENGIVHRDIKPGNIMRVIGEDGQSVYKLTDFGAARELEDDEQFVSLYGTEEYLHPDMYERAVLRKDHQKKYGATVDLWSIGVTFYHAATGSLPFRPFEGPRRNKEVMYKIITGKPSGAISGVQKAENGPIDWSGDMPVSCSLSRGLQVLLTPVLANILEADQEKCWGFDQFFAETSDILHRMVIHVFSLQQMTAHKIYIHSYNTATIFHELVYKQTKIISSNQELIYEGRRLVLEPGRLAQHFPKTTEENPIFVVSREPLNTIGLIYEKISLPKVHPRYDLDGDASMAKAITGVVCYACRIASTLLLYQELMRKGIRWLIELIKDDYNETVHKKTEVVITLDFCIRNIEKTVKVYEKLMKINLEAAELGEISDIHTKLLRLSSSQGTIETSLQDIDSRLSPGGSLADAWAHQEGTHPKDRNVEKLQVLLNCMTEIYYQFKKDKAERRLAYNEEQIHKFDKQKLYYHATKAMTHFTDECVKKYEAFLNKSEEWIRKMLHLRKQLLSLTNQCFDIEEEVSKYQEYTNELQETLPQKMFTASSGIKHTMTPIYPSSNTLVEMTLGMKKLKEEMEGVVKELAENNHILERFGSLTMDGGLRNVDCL
# [7] = target: Phosphatidylinositol 4-kinase beta (Homo sapiens, UniProt Q9UBF8); experiment: Selectivity interaction (ActivX KiNativ screen (kinase selectivity in THP-1 cell lysates)) EUB0000639a PI4KB; assay type: subcellular; settings: lysate, at 0.04 µM
# [8] = target: T2, Myotonin-protein kinase (Homo sapiens) (UniProt Q09013); experiment: Selectivity interaction (KinomeScan (DiscoverX)) EUB0000607a DMPK; settings: at 10 µM
# T2 sequence (whole entry): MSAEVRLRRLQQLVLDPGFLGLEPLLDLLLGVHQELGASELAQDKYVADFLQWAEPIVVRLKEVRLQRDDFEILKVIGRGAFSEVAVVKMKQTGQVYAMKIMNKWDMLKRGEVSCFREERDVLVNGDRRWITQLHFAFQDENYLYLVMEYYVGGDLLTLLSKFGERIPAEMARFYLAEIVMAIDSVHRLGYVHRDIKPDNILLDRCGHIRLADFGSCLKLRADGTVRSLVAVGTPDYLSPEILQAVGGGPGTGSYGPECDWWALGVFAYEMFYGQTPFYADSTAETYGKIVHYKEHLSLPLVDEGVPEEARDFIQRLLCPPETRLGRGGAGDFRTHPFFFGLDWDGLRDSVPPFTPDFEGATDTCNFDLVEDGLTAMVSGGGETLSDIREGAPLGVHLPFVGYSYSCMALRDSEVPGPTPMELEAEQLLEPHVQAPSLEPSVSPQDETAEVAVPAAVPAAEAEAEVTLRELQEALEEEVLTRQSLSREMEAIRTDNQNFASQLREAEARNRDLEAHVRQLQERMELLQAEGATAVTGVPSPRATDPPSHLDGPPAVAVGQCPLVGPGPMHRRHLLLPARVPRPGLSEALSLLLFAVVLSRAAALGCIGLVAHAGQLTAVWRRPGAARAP
# [9] = target: Mitogen-activated protein kinase 1 (Homo sapiens, UniProt P28482); experiment: Selectivity interaction (Kinase panel (literature)) EUB0001199aCl MAPK1; settings: at 1 µM
# [10] = target: Cyclin-dependent kinase 2 (Homo sapiens, UniProt P24941); experiment: Selectivity interaction (KinomeScan (DiscoverX)) EUB0000618a CDK2; settings: at 10 µM
# [11] = target: Sodium-dependent noradrenaline transporter (Homo sapiens, UniProt P23975); experiment: Selectivity interaction (Eurofins CEREP Diversity Profile (receptors and ion channels)) EUB0000279b SLC6A2; settings: at 10 µM
# Sodium-dependent noradrenaline transporter, sequence (P23975 whole entry): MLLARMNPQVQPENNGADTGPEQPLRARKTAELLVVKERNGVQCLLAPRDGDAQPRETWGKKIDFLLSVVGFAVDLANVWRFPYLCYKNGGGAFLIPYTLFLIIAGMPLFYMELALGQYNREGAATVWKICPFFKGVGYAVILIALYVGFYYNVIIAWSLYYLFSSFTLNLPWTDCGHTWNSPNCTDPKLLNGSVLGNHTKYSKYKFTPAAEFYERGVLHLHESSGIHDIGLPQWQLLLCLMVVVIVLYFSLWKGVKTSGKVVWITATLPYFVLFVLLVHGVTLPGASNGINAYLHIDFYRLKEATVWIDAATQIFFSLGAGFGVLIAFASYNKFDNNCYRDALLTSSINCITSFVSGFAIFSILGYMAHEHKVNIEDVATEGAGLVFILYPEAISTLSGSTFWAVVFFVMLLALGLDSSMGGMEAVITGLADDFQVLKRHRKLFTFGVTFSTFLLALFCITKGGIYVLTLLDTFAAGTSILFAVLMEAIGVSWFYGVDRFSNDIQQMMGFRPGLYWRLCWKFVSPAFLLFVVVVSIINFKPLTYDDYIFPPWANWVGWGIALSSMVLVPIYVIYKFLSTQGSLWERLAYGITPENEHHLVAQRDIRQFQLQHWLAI
# [12] = target: B1 bradykinin receptor (Homo sapiens) (UniProt P46663); experiment: Selectivity interaction (Eurofins CEREP Diversity Profile (receptors and ion channels)) EUB0000279b BDKRB1; settings: at 10 µM
# B1 bradykinin receptor (Homo sapiens), sequence (P46663 whole entry): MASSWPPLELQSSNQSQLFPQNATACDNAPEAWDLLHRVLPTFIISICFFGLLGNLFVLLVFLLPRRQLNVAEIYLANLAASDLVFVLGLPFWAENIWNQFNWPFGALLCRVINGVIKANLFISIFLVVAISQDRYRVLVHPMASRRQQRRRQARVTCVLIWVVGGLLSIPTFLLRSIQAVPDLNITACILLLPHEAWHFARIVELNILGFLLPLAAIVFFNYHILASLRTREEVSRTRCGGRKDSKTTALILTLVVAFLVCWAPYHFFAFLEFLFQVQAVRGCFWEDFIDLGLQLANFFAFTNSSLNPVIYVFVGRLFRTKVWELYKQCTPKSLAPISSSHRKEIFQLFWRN
# [13] = target: Histone-lysine N-methyltransferase SETDB1 (Homo sapiens) (UniProt Q15047); settings: at 10 µM
# [14] = target: Mitogen-activated protein kinase kinase kinase kinase 1 (Homo sapiens) (UniProt Q92918); experiment: Selectivity interaction (ActivX KiNativ screen (ex vivo kinase selectivity in human PBMCs)) EUB0001619a MAP4K1; assay type: cell-based; settings: PBMC, at 1 µM
# Serine/threonine-protein kinase SIK3 (Homo sapiens), sequence (Q9Y2K2 whole entry, looked up): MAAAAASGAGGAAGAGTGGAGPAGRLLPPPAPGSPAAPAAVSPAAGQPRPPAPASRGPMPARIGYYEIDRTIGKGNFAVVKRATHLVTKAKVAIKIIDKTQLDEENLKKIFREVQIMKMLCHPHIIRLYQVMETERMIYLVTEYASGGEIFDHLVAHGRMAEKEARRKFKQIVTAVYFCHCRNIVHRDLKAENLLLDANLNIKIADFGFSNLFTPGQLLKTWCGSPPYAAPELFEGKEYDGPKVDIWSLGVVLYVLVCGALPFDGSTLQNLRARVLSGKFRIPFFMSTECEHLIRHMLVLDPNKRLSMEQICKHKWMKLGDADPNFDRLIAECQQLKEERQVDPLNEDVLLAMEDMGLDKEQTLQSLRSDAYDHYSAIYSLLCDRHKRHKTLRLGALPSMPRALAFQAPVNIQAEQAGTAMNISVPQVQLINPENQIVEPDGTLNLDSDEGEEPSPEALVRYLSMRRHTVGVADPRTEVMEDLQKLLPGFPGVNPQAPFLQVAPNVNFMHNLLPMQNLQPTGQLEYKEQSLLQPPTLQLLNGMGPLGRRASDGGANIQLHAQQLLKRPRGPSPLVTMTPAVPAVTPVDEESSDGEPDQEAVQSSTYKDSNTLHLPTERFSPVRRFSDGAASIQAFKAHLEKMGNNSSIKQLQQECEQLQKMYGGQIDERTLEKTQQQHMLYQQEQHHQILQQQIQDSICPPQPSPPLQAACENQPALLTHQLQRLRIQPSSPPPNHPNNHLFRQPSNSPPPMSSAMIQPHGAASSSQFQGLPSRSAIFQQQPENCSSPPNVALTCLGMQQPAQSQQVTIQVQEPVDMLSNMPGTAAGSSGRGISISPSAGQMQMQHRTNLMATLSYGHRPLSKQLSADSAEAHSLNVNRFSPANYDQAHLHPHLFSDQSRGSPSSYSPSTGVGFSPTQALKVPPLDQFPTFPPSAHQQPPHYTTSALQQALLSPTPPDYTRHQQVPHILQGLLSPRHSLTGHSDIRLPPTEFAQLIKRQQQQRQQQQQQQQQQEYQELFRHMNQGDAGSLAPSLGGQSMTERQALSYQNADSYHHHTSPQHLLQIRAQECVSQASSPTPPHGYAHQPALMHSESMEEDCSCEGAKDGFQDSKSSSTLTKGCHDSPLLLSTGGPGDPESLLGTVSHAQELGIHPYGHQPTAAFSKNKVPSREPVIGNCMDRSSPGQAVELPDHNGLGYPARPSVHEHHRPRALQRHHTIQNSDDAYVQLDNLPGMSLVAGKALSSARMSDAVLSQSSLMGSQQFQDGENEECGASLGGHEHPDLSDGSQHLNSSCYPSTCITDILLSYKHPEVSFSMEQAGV
smiles,measurement,setting,value
COc1cc(N(C)c2ccnc3ccc(C(F)(F)F)cc23)cc(OC)c1OC,% binding,[1],74%
CCC(=O)N1CCN(c2ccc(-n3c(=O)ccc4cnc5ccc(-c6cnc7ccccc7c6)cc5c43)cc2C(F)(F)F)CC1,% of control,[2],85%
C=CC(=O)Nc1cccc(C(=O)Nc2ccc(Nc3cc(-c4[nH]c(SC)nc4C)ccn3)cc2)c1,% of control,[3]; at 1 µM,5%
same,% of control,[3]; at 5 µM,1%
Cn1cc(-n2cnc3c(NCc4nc5cc(Cl)c(Cl)cc5[nH]4)nc(N4CCOCC4)nc32)cn1,% of inhibition,[4],12.2%
CC[C@@H]1[C@H](F)C(=O)N[C@@H]1COc1nccc2cc(C(N)=O)c(OC)cc12 [ZIMLOVISERTIB],% of inhibition,[5],0.9%
same,% of inhibition,[6],7.6%
same,% of inhibition,[7],-0.3%
CNC(=O)Nc1ccc(-c2nc(N3CC4CCC(C3)O4)c3cnn(C4CCC5(CC4)OCCO5)c3n2)cc1,% of control,[8],83%
CN1Cc2nccc(-c3cn(C)nc3-c3ccc(F)cc3)c2C1=O,% of inhibition,[9],2%
O[C@H]1CC[C@H](Nc2ncc3nc(Nc4c(F)cc(F)cc4F)n([C@H]4CCOC4)c3n2)CC1,% of control,[10],100%
CC(=O)c1cc(-c2ccccc2OCC2CC2)c2ncccn12,% of control,[11],90%
same,% of control,[12],95%
CNCCN1CCC(c2cc(CN(C)C(=O)c3cccc(Oc4ccccc4)c3)ccn2)CC1,% activity,[13],> 90%
N#Cc1cccc(-c2c[nH]c3ncnc(N4CCOCC4)c23)c1,% of inhibition,[14],26%
